The source of these data is patent US20260256720A1 (The United States Government as represented by the …, priority 2023, published 2026).

Broadly, the inhibition is the share of the control response that was lost under treatment.

For series [1], the target named is T1, STAT1 (Homo sapiens, UniProt P42224).
T1 sequence (P42224 1-750): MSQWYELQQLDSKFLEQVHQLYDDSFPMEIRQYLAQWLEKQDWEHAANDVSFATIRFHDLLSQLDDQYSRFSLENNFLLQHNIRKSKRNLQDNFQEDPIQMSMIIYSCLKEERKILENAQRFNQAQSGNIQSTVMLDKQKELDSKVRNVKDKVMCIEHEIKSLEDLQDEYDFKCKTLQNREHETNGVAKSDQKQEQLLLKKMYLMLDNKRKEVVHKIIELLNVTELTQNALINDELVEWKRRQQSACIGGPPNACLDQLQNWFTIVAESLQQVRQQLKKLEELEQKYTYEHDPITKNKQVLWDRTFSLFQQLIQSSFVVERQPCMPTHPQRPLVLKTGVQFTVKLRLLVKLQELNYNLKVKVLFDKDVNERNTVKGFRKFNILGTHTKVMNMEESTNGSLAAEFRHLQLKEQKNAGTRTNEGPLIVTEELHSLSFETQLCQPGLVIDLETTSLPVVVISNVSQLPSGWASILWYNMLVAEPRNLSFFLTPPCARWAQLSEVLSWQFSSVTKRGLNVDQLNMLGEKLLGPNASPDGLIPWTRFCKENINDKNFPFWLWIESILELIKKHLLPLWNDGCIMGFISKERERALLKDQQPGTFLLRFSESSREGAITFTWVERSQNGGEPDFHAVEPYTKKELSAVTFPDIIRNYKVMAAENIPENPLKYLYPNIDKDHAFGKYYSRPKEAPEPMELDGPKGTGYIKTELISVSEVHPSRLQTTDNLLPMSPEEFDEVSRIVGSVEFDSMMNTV
In words: Spectrofluorimetry binding.

Series [2] has as its target T2, STAT3 (Mus musculus, UniProt P42227).
T2 construct: endogenous in cells; host or cells: LLC cells
As to the kind of experiment: STAT3 phosphorylation in LLC cells. Type of series: cell-based.
Description: LLC cells, a syngeneic mouse NSCLC line that forms tumors in immune competent C57bl/6 mice, can be used to study of the tumor immune microenvironment (Bullock B L, et al. Life Sci Alliance. 2019; 2 (3)).

The subject of series [3] is H460 NSCLC cells. In words: Spheroid formation and CD133 in scramble or STAT3 shRNA knockdown H460 cells. It is filed as cell-based, human. From the text:
Number of spheroids per well were counted.
Images quantified with ImageJ, normalized to Vehicle and GAPDH. *<0.05
Transient knockdown (KD) of STAT3 in H460 NSCLC cells was achieved using shRNA.

Series [4] addresses STAT3 (Homo sapiens, UniProt P40763). In words: Spectrofluorimetry binding. Conditions: STAT3 22 nM, 25° C., emission at 340 nm, quadratic binding equation; read-out: affinity of STAT3-AAP complex. From the text: Biophysical techniques confirm computational predictions. To test computational predictions, spectrofluorimetry, which is a sensitive method that reports on changes in intrinsic protein fluorescence if a ligand binds with reasonable affinity (Parikh H H, et al. Pharm Res. 2000; 17 (5): 632-7) was used. The interaction can be used to measure the affinity of the complex. […] A robust saturable fluorescence signal was observed indicating the formation of STAT3-AAP complex.

In series [5] the test system is a variety of cancer histologies. Conditions: cited from earlier work.

Sequence of STAT3 (Homo sapiens, UniProt P40763) (P40763 whole entry, species assumed): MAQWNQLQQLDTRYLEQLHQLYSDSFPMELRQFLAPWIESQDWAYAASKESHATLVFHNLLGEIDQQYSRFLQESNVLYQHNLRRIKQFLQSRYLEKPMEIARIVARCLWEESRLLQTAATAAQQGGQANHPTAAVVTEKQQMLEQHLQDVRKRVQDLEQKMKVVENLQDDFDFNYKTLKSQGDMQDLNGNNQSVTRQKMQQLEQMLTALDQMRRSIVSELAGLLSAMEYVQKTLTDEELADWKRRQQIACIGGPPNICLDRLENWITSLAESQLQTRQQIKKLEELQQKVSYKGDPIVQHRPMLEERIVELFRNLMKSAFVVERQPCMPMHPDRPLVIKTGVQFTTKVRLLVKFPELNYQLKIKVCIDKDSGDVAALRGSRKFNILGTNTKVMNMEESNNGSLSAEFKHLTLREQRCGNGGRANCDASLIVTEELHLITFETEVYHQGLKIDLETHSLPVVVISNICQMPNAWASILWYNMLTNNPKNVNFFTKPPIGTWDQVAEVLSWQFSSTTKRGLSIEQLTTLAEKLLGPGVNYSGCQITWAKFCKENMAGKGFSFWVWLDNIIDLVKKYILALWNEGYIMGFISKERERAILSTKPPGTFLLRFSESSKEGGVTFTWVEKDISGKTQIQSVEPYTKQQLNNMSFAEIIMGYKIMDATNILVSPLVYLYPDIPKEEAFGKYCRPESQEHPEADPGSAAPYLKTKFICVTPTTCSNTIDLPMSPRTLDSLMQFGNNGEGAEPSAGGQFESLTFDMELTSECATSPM
T2 sequence (P42227 whole entry): as the sequence (P40763 whole entry, species assumed) above, with E760D counted along it

Take `CC(=O)Nc1ccc(O)cc1` [AAP, acetaminophen]: the “binding to STAT1” value in series [1] was “no change in fluorescence”. Besides, the STAT3 phosphorylation result in series [2] is “inhibits”. For the same molecule, the inhibition at 1000 µM in series [3] (Homo sapiens, NCI-H460, 96 h, read-out: inhibition of spheroid formation compared to vehicle control) is over 50%. In series [3] (STAT3 knockdown cells, AAP 1 mM), the “effect on spheroid formation compared to vehicle control” value is reported as “no effect”. Also, the “CD133 expression compared to vehicle control” value in series [3] (scrambled cells, AAP 1 mM) is given as “inhibited”. For the same molecule, the Kd in series [4] turned out to be 3.8 µM. The “objective responses / response rate” value in series [5] (3/14 assessable patients) is listed as 21%. Also, the dose limiting toxicity result in series [5] (up to 20 g/m^2 AAP followed by delayed NAC rescue) was “no dose limiting toxicity”.
